Experimental data published in patent US7514579B2, “Boronic chalcone derivatives and uses thereof” (Johns Hopkins University, priority 2002, dated 2009).

How the values were obtained:
Settings in all cases: MTT growth inhibition, 96 hours exposure
[1] = tested on: MDA-MB-435 (estrogen independent) human breast cancer cells; assay: MTT survival assay, MDA-MB-435 cells; format: cell-based
Description: (§1) The cytotoxicity of the boronic chalcone analogs and carboxylic acid chalcones were evaluated and compared by MTT survival assays of human breast cancer MDA-MB-435, MDA-MB-231, Wt-MCF7, and MCF-10A cells treated at different concentrations of the analogs.
(§2) Human breast cancer MDA-MB-231 (estrogen independent) and wtMCF7 (estrogen dependent) human breast cancer cells were maintained in DMEM medium supplemented with 5% fetal bovine serum, 2 mM glutamine, and 100 units/mL penicillin/streptomycin. MDA-MB-435 (estrogen independent) human breast cancer cells were maintained in IMEM medium supplemented with 5% fetal bovine serum and 2 mM glutamine. Each cell line used has unique growth characteristics spanning the spectrum of tumor invasiveness, differentiation and estrogen dependence. Normal breast epithelial cell lines, MCF-10A and MCF-12A, were maintained in 5% and 10% horse serum in DMEM:Ham's F12 media, respectively, supplemented with 2 mM glutamine, 100 units/mL penicillin/streptomycin, 0.02 μg/mL EGF, 0.01 mg/mL insulin, and 0.1 μg/mL cholera toxin.
(§3) Cells were incubated at 37° C. in a 5% CO2 atmosphere. The MTT colorimetric assay was used to determine growth inhibition (Mosmann, T., J. Immunol. Methods, 1983, 65, 55-63). Cells were plated in 96-well plates and allowed to attach for 24 hours. Chalcone derivatives based on compounds 20 and 21 below were dissolved in DMSO at 10 mM concentrations. Cells were expose in quadruplicate well to chalcone concentrations of 0.5-100 µM for 96 hours. After 96 hours the media was aspirated, and 100 µL of 1 mg/mL MTT solution (Sigma Chemical Co.) diluted in serum free media was added to each well. After 4 hours of incubation, the MTT solution was removed and 200 µL of 1:1 (v/v) solution of DMSO:ethanol was added to each well to dissolve formazan crystals. The absorbance at A540nm was determined on a plate reader. IC50 values were determined from log plots of percent of control vs. concentration. Each compound was assayed twice in quadruplicate. Analogs 3g and 9 have been previously described (Stoll R., et al., supra; Kussie, P. H., et al., supra) and were included for comparative purposes.

[2] = tested on: MDA-MB-231 (estrogen independent) human breast cancer cells; assay: MTT survival assay, MDA-MB-231 cells; format: cell-based
Description: as §1, §2, §3

[3] = tested on: MCF-10A normal breast epithelial cell line; assay: MTT survival assay, MCF-10A cells; format: cell-based, human
Description: as §1, §2, §3

[4] = tested on: MCF-12A normal breast epithelial cell line; assay: MTT survival assay, MCF-12A cells; format: cell-based, human
Description: as §1, §2, §3

[5] = tested on: wtMCF7 (estrogen dependent) human breast cancer cells; assay: MTT survival assay, Wt-MCF7 cells; format: cell-based
Description: as §1, §2, §3

Structure (SMILES)	IC50 [1]	IC50 [2]	IC50 [3]	IC50 [4]	IC50 [5]
O=C(/C=C/c1ccc(I)cc1)c1ccc(O)cc1 [Compound 6]	4.5 µM	8 µM	15 µM	30 µM	7 µM
O=C(O)COc1ccc(C(=O)/C=C/c2ccc(I)cc2)cc1 [Compound 3f]	18 µM	44 µM	44 µM	38 µM	9 µM
O=C(O)COc1ccc(C(=O)/C=C/c2ccc(Cl)c(Cl)c2)cc1 [Compound 3g, reference compound]	9 µM	9 µM	13 µM	15 µM	13 µM
O=C(/C=C/c1ccc(F)c(Cl)c1)c1ccc(B(O)O)cc1 [Compound 3c]	16 µM	8.5 µM	25 µM	22 µM	6 µM
O=C(/C=C/c1ccc(I)cc1)c1ccc(B(O)O)cc1 [Compound 3a]	10 µM	8.8 µM	75 µM	63 µM	7 µM
O=C(/C=C/c1ccc(Cl)c(Cl)c1)c1ccc(B(O)O)cc1 [Compound 3b]	3.5 µM	9.5 µM	18 µM	11 µM	5 µM
O=C(/C=C/c1ccc(Cl)c(Cl)c1)c1ccc(B(O)O)cc1 [Compound 8]	4 µM	8 µM	18 µM	15 µM	5.5 µM
O=C(/C=C/c1ccc(F)c(Br)c1)c1ccc(B(O)O)cc1 [Compound 3e]	8.8 µM	9.5 µM	17 µM	38 µM	8.5 µM
O=C(/C=C/c1ccc(F)c(F)c1)c1ccc(B(O)O)cc1 [Compound 3d]	8.8 µM	8.8 µM	18 µM	39 µM	7.8 µM
O=C(O)COc1ccc(C(=O)/C=C/c2ccc(Cl)c(Cl)c2)cc1 [Compound 9, reference compound]	13 µM	18 µM	12 µM	28 µM	15 µM
O=C(/C=C/c1ccc(I)cc1)c1ccc(OCB(O)O)cc1 [Compound 7]	18 µM	11 µM	38 µM	100 µM	9.5 µM
